Test results taken from the NIST ThermoML archive (doi:10.1021/je050305z).

Conditions: Gas, Hot wire method

COC [dimethyl ether]
Conditions	thermal conductivity [W/m/K]
355.58 K, 1777.8 kPa	0.02592
355.64 K, 504.3 kPa	0.02468
355.66 K, 2226 kPa	0.02632
355.69 K, 1497.3 kPa	0.02553
355.74 K, 356.1 kPa	0.02462
355.82 K, 1194.9 kPa	0.02508
355.89 K, 156.1 kPa	0.02441
355.97 K, 872.5 kPa	0.02489
356.09 K, 1777.8 kPa	0.02597
356.1 K, 701.6 kPa	0.02489
356.2 K, 504.3 kPa	0.02488
356.21 K, 1497.3 kPa	0.02554
356.31 K, 356.1 kPa	0.02481
356.38 K, 1194.9 kPa	0.02516
356.52 K, 156.1 kPa	0.02447
356.57 K, 872.5 kPa	0.02502
356.72 K, 701.6 kPa	0.0249
356.86 K, 504.3 kPa	0.02485
356.98 K, 356.1 kPa	0.02475
357.23 K, 156.1 kPa	0.02456
364.94 K, 2198.1 kPa	0.02782
365.09 K, 1801.9 kPa	0.02689
365.2 K, 1500.1 kPa	0.0265
365.3 K, 1202 kPa	0.02622
365.42 K, 906.2 kPa	0.02606
365.51 K, 697.2 kPa	0.02598
365.51 K, 2198.1 kPa	0.02789
365.59 K, 481.6 kPa	0.026
365.68 K, 346.3 kPa	0.02589
365.7 K, 1801.9 kPa	0.0271
365.81 K, 1500.1 kPa	0.02669
365.86 K, 156.4 kPa	0.02596
365.94 K, 1202 kPa	0.02635
365.99 K, 2198.1 kPa	0.02796
366.1 K, 906.2 kPa	0.02615
366.2 K, 697.2 kPa	0.02609
366.23 K, 1801.9 kPa	0.02723
366.31 K, 481.6 kPa	0.02599
366.35 K, 1500.1 kPa	0.02675
366.42 K, 346.3 kPa	0.02597
366.52 K, 1202 kPa	0.02642
366.66 K, 156.4 kPa	0.02591
366.7 K, 906.2 kPa	0.02622
366.82 K, 697.2 kPa	0.02608
366.96 K, 481.6 kPa	0.02612
367.09 K, 346.3 kPa	0.02604
367.38 K, 156.4 kPa	0.02597
374.95 K, 2704.4 kPa	0.03029
375.17 K, 2197.8 kPa	0.02893
375.29 K, 1766.8 kPa	0.02826
375.36 K, 1499.6 kPa	0.02784
375.46 K, 892.8 kPa	0.02733
375.49 K, 1198.6 kPa	0.02756
375.49 K, 2704.4 kPa	0.03041
375.54 K, 707.6 kPa	0.02738
375.63 K, 507.4 kPa	0.02734
375.72 K, 354 kPa	0.02727
375.76 K, 2197.8 kPa	0.0291
375.9 K, 152.4 kPa	0.02713
375.92 K, 1766.8 kPa	0.02831
375.95 K, 2704.4 kPa	0.03051
375.97 K, 1499.6 kPa	0.02793
376.14 K, 892.8 kPa	0.02756
376.17 K, 1198.6 kPa	0.0277
376.22 K, 707.6 kPa	0.02749
376.28 K, 2197.8 kPa	0.02917
376.35 K, 507.4 kPa	0.02737
376.45 K, 354 kPa	0.02739
376.46 K, 1766.8 kPa	0.02837
376.56 K, 1499.6 kPa	0.02791
376.68 K, 152.4 kPa	0.02726
376.72 K, 892.8 kPa	0.02758
376.75 K, 1198.6 kPa	0.02773
376.81 K, 707.6 kPa	0.02751
376.96 K, 507.4 kPa	0.0274
377.08 K, 354 kPa	0.02742
377.4 K, 152.4 kPa	0.0273
384.94 K, 3297.7 kPa	0.03329
385.16 K, 2700.7 kPa	0.03115
385.35 K, 2197 kPa	0.02995
385.44 K, 3297.7 kPa	0.03354
385.48 K, 1805.7 kPa	0.02946
385.56 K, 1500.6 kPa	0.02919
385.66 K, 1201.3 kPa	0.02897
385.74 K, 2700.7 kPa	0.03126
385.77 K, 899.9 kPa	0.02885
385.93 K, 503.9 kPa	0.02857
385.95 K, 703 kPa	0.0288
385.98 K, 2197 kPa	0.0301
386 K, 3297.7 kPa	0.03358
386.01 K, 355.6 kPa	0.02861
386.13 K, 1805.7 kPa	0.02959
386.2 K, 156.6 kPa	0.02852
386.22 K, 1500.6 kPa	0.02926
386.33 K, 1201.3 kPa	0.02917
386.38 K, 2700.7 kPa	0.03136
386.48 K, 899.9 kPa	0.02895
386.5 K, 2197 kPa	0.03017
386.6 K, 703 kPa	0.02886
386.65 K, 503.9 kPa	0.02873
386.65 K, 1805.7 kPa	0.02964
386.74 K, 1500.6 kPa	0.02936
386.79 K, 355.6 kPa	0.02867
386.93 K, 1201.3 kPa	0.02916
387.03 K, 156.6 kPa	0.02858
387.08 K, 899.9 kPa	0.02903
387.21 K, 703 kPa	0.02901
387.32 K, 503.9 kPa	0.02881
387.44 K, 355.6 kPa	0.02881
387.74 K, 156.6 kPa	0.02859
